In article PMC10225205 (Cancer Medicine, 2023):
Like-named read-outs stand apart in the source and are kept apart here.

How the values were obtained:
[1] = cited from earlier work
[2] = FIGHT-101; cited from earlier work
[3] = human, in vivo
Protocol: (§1) Postdose samples were collected at 0.5, 1, 2, 4, 6, and 8 h on Day 1, and at 1 h on Day 14 of Cycle 1. For patients in the CD regimen, a postdose sample at 6 h on Day 14 was also collected.
(§2) Pharmacodynamic data were presented using summary statistics.

[4] = test system: FGF23; assay: Plasma FGF23 concentration (Meso Scale Discovery assay); format: in vivo, human
Protocol: Plasma samples for pharmacodynamic assessments were collected predose on Days 1, 14, and 15 of Cycle 1 and any time on Day 1 (±3 days) of the subsequent cycles. […] Baseline FGF23 concentrations were assessed in plasma samples collected on Days 1 and 15 of Cycle 1 using a commercially available assay (Meso Scale Discovery). […] Inhibition of FGFR2 was assessed using an ex vivo assay that measured phosphorylated FGFR2α concentration following exposure of FGFR2‐amplified gastric cancer cells (KATOIII) to patient plasma.

[5] = test system: refractory advanced malignancies; settings: cited from earlier work
[6] = test system: pFGFR2; settings: read-out: In vivo IC50 for the inhibition of pFGFR2; cited from earlier work
[7] = clinical; settings: human, in vivo; for AUC: AUCss,0-24h; for Vd/F: Vz/F; for Tmax: median; for half-life: t½
Protocol: as §1, §2

In the case of `CCN1C(=O)N(c2c(F)c(OC)cc(OC)c2F)Cc2cnc3[nH]c(CN4CCOCC4)cc3c21` [Pemigatinib], the AUC0-24 geometric mean ([1]; 13.5 mg QD steady state, CV% 54.1) is listed as 2620 nM·h, the Geometric mean half-life ([1]; 13.5 mg QD, CV% 51.6) is listed as 15.4 h and the Cmax ([1]; 13.5 mg QD, CV% 56.4, read-out: Steady-state Cmax geometric mean) is listed as 236 nM. For the same compound, the Terminal half-life ([1]; dose-independent) was 15 h, the “Time to reach Cmax” value ([1]; doses of ≥6 mg) was 1 to 2 h and the “Most common (>30%) overall TEAEs” value [2] was “hyperphosphatemia, fatigue, dry mouth, stomatitis, diarrhea, and alopecia”. The “Recommended dosage for further studies” value [2] was 13.5 mg QD, the “Geometric mean fraction of dose excreted in urine” value [3] was 2.48% and the “CLss/F, geometric mean (CV%)” value ([3]; 9 mg) was 8.99 (91.0) L/h. For the same compound, the “CLss/F, mean ± SD” value ([3]; 9 mg) was 10.6 ± 6.31 L/h, the “tmax, median” value ([3]; 9 mg) was 58 min and the “CLss/F, geometric mean (CV%)” value ([3]; 18 mg) was 5.63 (43.8) L/h. The “CLss/F, mean ± SD” value ([3]; 18 mg) was 5.96 ± 2.50 L/h, the “tmax, median” value ([3]; 18 mg) was 50 min and the “Mean increase of plasma FGF23” value ([4]; 9 mg) was 2.6 fold. The “Mean increase of plasma FGF23” value ([4]; 13.5 mg) was 2.9 fold, the “Rise of median FGF23 concentration from baseline” value ([4]; 13.5 mg QD, first 2 weeks of treatment) was “slightly more than twofold” and the “Mean increase of plasma FGF23” value ([4]; 18 mg) was 3.9 fold. For the same compound, the “Patients with elevated FGF23 concentration at Day 15 of Cycle 1” value ([4]; 37/41 patients, all doses) was 90%, the “Mean FGF23 concentration” value ([4]; C1D15, all doses, baseline 198 ± 29) was 464 ± 49 pg/mL and the Median progression-free survival ([5]; FGFR fusions or rearrangements, 95% CI 2.8–10.0) was 5.7 months. For the same compound, the Objective response rate ([5]; FGFR fusions or rearrangements, 95% CI 8.7–49.1) was 25.0%, the Partial responses ([5]; across tumor types) was 12 n and the Objective response rate ([5]; all patients, 95% CI 4.9–15.8) was 9.4%. The “Median duration of response” value ([5]; all responders, 95% CI 3.3–14.5) was 7.3 months, the IC50 [6] was 22.6 nM and the AUC(0-t) ([7]; 9 mg, AUC0-24h, geometric mean (CV%)) was 1.12 µM·h. For the same compound, the AUC(0-t) ([7]; 9 mg, AUC0-24h, mean ± SD) was 1.13 ± 0.133 µM·h, the AUC(0-t) ([7]; 9 mg, AUClast, geometric mean (CV%)) was 1.12 µM·h and the AUC(0-t) ([7]; 9 mg, AUClast, mean ± SD) was 1.12 ± 0.125 µM·h. It also gave an AUC ([7]; 9 mg, geometric mean (CV%)) of 2.05 µM·h, an AUC ([7]; 9 mg, mean ± SD) of 2.54 ± 2.1 µM·h and a Cmax ([7]; 9 mg, Cmax, geometric mean (CV%)) of 110 nM. The Cmax ([7]; 9 mg, Cmax, mean ± SD) was 114 ± 35.3 nM, the Cmax ([7]; 9 mg, Cmax,ss, geometric mean (CV%)) was 127 nM and the Cmax ([7]; 9 mg, Cmax,ss, mean ± SD) was 155 ± 117 nM. For the same compound, the Vd/F ([7]; 9 mg, geometric mean (CV%)) was 209 L, the Vd/F ([7]; 9 mg, mean ± SD) was 224 ± 104 L and the Tmax ([7]; 9 mg) was 1.9 h. For the same compound, the half-life ([7]; 9 mg, geometric mean (CV%)) was 966 min, the half-life ([7]; 9 mg, mean ± SD) was 1030 ± 446 min and the AUC(0-t) ([7]; 18 mg, AUC0-24h, geometric mean (CV%)) was 3.31 µM·h. The AUC(0-t) ([7]; 18 mg, AUC0-24h, mean ± SD) was 3.45 ± 1.02 µM·h, the AUC(0-t) ([7]; 18 mg, AUClast, geometric mean (CV%)) was 3.24 µM·h and the AUC(0-t) ([7]; 18 mg, AUClast, mean ± SD) was 3.38 ± 1.01 µM·h. The AUC ([7]; 18 mg, geometric mean (CV%)) was 6.56 µM·h, the AUC ([7]; 18 mg, mean ± SD) was 6.95 ± 2.78 µM·h and the Cmax ([7]; 18 mg, Cmax, geometric mean (CV%)) was 344 nM. For the same compound, the Cmax ([7]; 18 mg, Cmax, mean ± SD) was 431 ± 272 nM, the Cmax ([7]; 18 mg, Cmax,ss, geometric mean (CV%)) was 385 nM and the Cmax ([7]; 18 mg, Cmax,ss, mean ± SD) was 450 ± 285 nM. The Vd/F ([7]; 18 mg, geometric mean (CV%)) was 154 L, the Vd/F ([7]; 18 mg, mean ± SD) was 205 ± 188 L and the Tmax ([7]; 18 mg) was 1.02 h. The half-life ([7]; 18 mg, geometric mean (CV%)) was 1130 min and the half-life ([7]; 18 mg, mean ± SD) was 1240 ± 672 min.
